The source of these data is patent US12565494B2, “Inhibitors of human respiratory syncytial virus and metapneumovirus” (priority 2022, dated 2026).

Each structure is given as a SMILES string. Read-outs that look alike come from different tables or passages of the source.

The subject of one assay is hMPV-GFP virus. Nature of the assay: microbe, parasite or virus in culture. The class given is cell-based, Human Metapneumovirus. As to conditions: VERO cells, hMPV-GFP MOI=1.25, 48 hrs, GFP-expressing cells counted. Summed up: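 VERO cells infected with GFP-expressing hMPV at MOI 1.25 and exposed to compound in 10-point 3-fold dilutions (typical final 40,300–2 nM) for 48 h at 37 °C. GFP-positive cells counted by imaging; same-well CellTiter-Glo for cytotoxicity. IC50 and CC50 from 4-parameter logistic fits.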

The next assay has as its system RSV-A2-GFP virus. The assay is described as follows: microbe, parasite or virus in culture. Type of assay: cell-based, Human Respiratory Syncytial Virus. As to conditions: Calu-1 cells, RSV-A2-GFP MOI=1.2, 96 hrs, GFP-expressing cells counted. A digest of the protocol:
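Assay-ready frozen Calu-1 cells (20,000 cells/mL) were infected with RSV-A2-GFP at MOI 1.2 in DMEM with 2% FBS and exposed to a 10-point 3-fold compound dilution for 96 h at 37 °C. GFP-positive cells were counted by imaging, with same-well CellTiter-Glo for cytotoxicity. IC50 and CC50 came from 4-parameter logistic fits.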

Where [1] appears, read: Vero, 48 h, read-out: RSV EC50, Table II Summary of Activities for hMPV.
[2] abbreviates: human respiratory syncytial virus, Calu-1, 96 h, read-out: RSV EC50, Table I Summary of Activities for RSV.
Where [3] appears, read: Table II Summary of Activities for hMPV, read-out: RSV EC50.
The mark [4] stands for this setting: Table I Summary of Activities for RSV, read-out: RSV EC50.
Where [5] appears, read: read-out: RSV EC50, Table II Summary of Activities for hMPV.
The mark [6] stands for this setting: read-out: RSV EC50, Table I Summary of Activities for RSV.

One may read the EC50 as the concentration giving half of the maximal effect. Turning to `Cc1nc(-c2ncco2)sc1C(=O)N1C[C@@H]2[C@H](C1)[C@H]2Oc1cc(C(C)(C)N)cc(-c2ccc(F)cc2F)n1` [Example 31, ((1R,5S,6s)-6-((4-(2-aminopropan-2-yl)-6-(2,4-difluorophenyl)pyridin-2-yl)oxy)-3-azabicyclo[3.1.0]hexan-3-yl)(4-methyl-2-(oxazol-2-yl)thiazol-5-yl)], the figures for the EC50 in the assay on hMPV-GFP virus (setting [1]) and with RSV-A2-GFP virus (setting [2]) were 10 to 100 nM and less than 10 nM, respectively.
Regarding `Cn1nc(-c2cscn2)cc1C(=O)N1C[C@@H]2C(Oc3cc(C(C)(N)CO)cc(-c4ccc(F)cc4)n3)[C@@H]2C1` (single isomer, unassigned; enantiomer 2) [Example 57B], the EC50 was greater than 100 nM in the assay with hMPV-GFP virus (setting [3]) and less than 10 nM with RSV-A2-GFP virus (setting [4]).
Regarding `Cn1nc(-c2ncco2)cc1C(=O)N1C[C@@H]2[C@H](C1)[C@H]2Oc1cc(C(C)(C)N)cc(N2CCC(C(F)(F)F)CC2)n1` [Example 40, ((1R,5S,6s)-6-((4-(2-aminopropan-2-yl)-6-(4-(trifluoromethyl)piperidin-1-yl)pyridin-2-yl)oxy)-3-azabicyclo[3.1.0]hexan-3-yl)(1-methyl-3-(oxazol-2-yl)-1H-pyrazol-5-yl)methanone], the EC50 in the assay with hMPV-GFP virus (setting [3]) is greater than 100 nM; in the assay on RSV-A2-GFP virus (setting [4]) it was less than 10 nM.
Take `Cc1nc(-c2cc(C(=O)N3C[C@@H]4[C@H](C3)[C@H]4Oc3cc(C(C)(C)N)cc(-c4ccc(F)cc4)n3)n(C)n2)cs1` [Example 24, ((1R,5S,6s)-6-((4-(2-aminopropan-2-yl)-6-(4-fluorophenyl)pyridin-2-yl)oxy)-3-azabicyclo[3.1.0]hexan-3-yl)(1-methyl-3-(2-methylthiazol-4-yl)-1H-pyrazol-5-yl)methanone]: the results for the EC50 in the assay with hMPV-GFP virus (setting [3]) and in the assay with RSV-A2-GFP virus (setting [4]) were greater than 100 nM and less than 10 nM, respectively.
Take `CC(N)c1cc(O[C@H]2[C@@H]3CN(C(=O)c4cc(-c5cscn5)nn4C)C[C@@H]32)nc(-c2ccc(F)cc2)c1` (single isomer, unassigned; enantiomer 1) [Example 61A]: the EC50 in the assay with hMPV-GFP virus (setting [1]) is greater than 100 nM; in the assay with RSV-A2-GFP virus (setting [2]), less than 10 nM.
The corresponding values for `Cn1nc(-c2cscn2)cc1C(=O)N1C[C@@H]2[C@H](C1)[C@H]2Oc1cc(C(C)(C)N)cc(-c2ccc(F)cc2)n1` [Example 18, ((1R,5S,6s)-6-((4-(2-aminopropan-2-yl)-6-(4-fluorophenyl)pyridin-2-yl)oxy)-3-azabicyclo[3.1.0]hexan-3-yl)(1-methyl-3-(thiazol-4-yl)-1H-pyrazol-5-yl)methanone] are 10 to 100 nM and less than 10 nM.
Take `Cn1nc(-c2cscn2)cc1C(=O)N1C[C@@H]2[C@H](C1)[C@H]2Oc1cc(C(C)(C)N)cc(C2CCC(C)(C)CC2O)n1` (single isomer, unassigned; enantiomer 3) [Example 66C]: the EC50 in the assay on hMPV-GFP virus (setting [5]) is greater than 100 nM; in the assay on RSV-A2-GFP virus (setting [6]), 10 to 100 nM.
Regarding `Cn1nc(-n2cccn2)cc1C(=O)N1C[C@@H]2[C@H](C1)[C@H]2Oc1cc(C(C)(C)N)cc(-c2ccc(F)cc2)n1` [Example 67, ((1R,5S,6s)-6-((4-(2-aminopropan-2-yl)-6-(4-fluorophenyl)pyridin-2-yl)oxy)-3-azabicyclo[3.1.0]hexan-3-yl)(1′-methyl-1′H-[1,3′-bipyrazol]-5′-yl)methanone], the EC50 in the assay on hMPV-GFP virus (setting [1]) is greater than 100 nM; with RSV-A2-GFP virus (setting [2]), less than 10 nM.
On the same counts, the results for `Cn1nc(-c2cscn2)cc1C(=O)N1C[C@@H]2[C@H](C1)[C@H]2Oc1cc(C(C)(C)C(N)=O)cc(-c2ccc(F)cc2)n1` [Example 48, 2-(2-(4-fluorophenyl)-6-(((1R,5S,6s)-3-(1-methyl-3-(thiazol-4-yl)-1H-pyrazole-5-carbonyl)-3-azabicyclo[3.1.0]hexan-6-yl)oxy)pyridin-4-yl)-2-methylpropanamide] are greater than 100 nM and less than 10 nM.
On to `Cn1nc(-c2cscn2)cc1C(=O)N1C[C@@H]2[C@H](C1)[C@H]2Oc1cc(C(C)(C)N)cc(N2CCC(C)(C)CC2)n1` [Example 39, ((1R,5S,6s)-6-((4-(2-aminopropan-2-yl)-6-(4,4-dimethylpiperidin-1-yl)pyridin-2-yl)oxy)-3-azabicyclo[3.1.0]hexan-3-yl)(1-methyl-3-(thiazol-4-yl)-1H-pyrazol-5-yl)methanone], for which the figures for the EC50 in the assay on hMPV-GFP virus (setting [3]) and in the assay on RSV-A2-GFP virus (setting [4]) were greater than 100 nM and less than 10 nM, respectively.
For the molecule `Cn1nc(-c2ncco2)cc1C(=O)N1C[C@@H]2[C@H]1C[C@H]2Oc1cc(C(C)(C)N)cc(-c2ccc(F)cc2)n1` (single isomer, unassigned; enantiomer 2) [Example 2], the EC50 is greater than 100 nM in the assay on hMPV-GFP virus (setting [1]) and 10 to 100 nM in the assay with RSV-A2-GFP virus (setting [2]).
Turning to `Cc1nc(-c2ncn[nH]2)sc1C(=O)N1C[C@@H]2[C@H](C1)[C@H]2Oc1cc(C(C)(C)N)cc(-c2ccc(F)cc2)n1` [Example 10, ((1R,5S,6s)-6-((4-(2-aminopropan-2-yl)-6-(4-fluorophenyl)pyridin-2-yl)oxy)-3-azabicyclo[3.1.0]hexan-3-yl)(4-methyl-2-(1H-1,2,4-triazol-5-yl)thiazol-5-yl)methanone], the concentration for a half-maximal effect (EC50) in the assay with hMPV-GFP virus (setting [3]) was greater than 100 nM; in the assay on RSV-A2-GFP virus (setting [4]) it was less than 10 nM.
Turning to `Cn1nc(-c2ncco2)cc1C(=O)N1C[C@@H]2[C@H](C1)[C@H]2Oc1cc(C(C)(C)N)cc(-c2ccc(F)cc2)n1` [Example 17, ((1R,5S,6s)-6-((4-(2-aminopropan-2-yl)-6-(4-fluorophenyl)pyridin-2-yl)oxy)-3-azabicyclo[3.1.0]hexan-3-yl)(1-methyl-3-(oxazol-2-yl)-1H-pyrazol-5-yl)methanone], the EC50 was 10 to 100 nM in the assay on hMPV-GFP virus (setting [1]) and less than 10 nM in the assay on RSV-A2-GFP virus (setting [2]).
On the same counts, the results for `Cn1nc(-c2ccon2)cc1C(=O)N1C[C@H]2[C@H](Oc3cc(C(C)(C)N)cc(-c4ccc(F)cc4)n3)[C@@]2(C)C1` (single isomer, unassigned; enantiomer 1) [Example 45A] are greater than 100 nM and less than 10 nM.
For `Cn1nc(-c2cscn2)cc1C(=O)N1C[C@@H]2[C@H](C1)[C@H]2Oc1cc(C2(C)CCCN2)cc(-c2ccc(F)cc2)n1` (single isomer, unassigned; enantiomer 1) [Example 56A], the EC50 in the assay with hMPV-GFP virus (setting [1]) was greater than 100 nM; in the assay on RSV-A2-GFP virus (setting [2]), less than 10 nM.
`Cc1nc(-c2ncco2)sc1C(=O)N1C[C@@H]2[C@H](C1)[C@H]2Oc1cc(C(C)(C)N)cc(-n2cc(C3CC3)cn2)n1` [Example 37, ((1R,5S,6s)-6-((4-(2-aminopropan-2-yl)-6-(4-cyclopropyl-1H-pyrazol-1-yl)pyridin-2-yl)oxy)-3-azabicyclo[3.1.0]hexan-3-yl)(4-methyl-2-(oxazol-2-yl)thiazol-5-yl)methanone]: the EC50 in the assay on hMPV-GFP virus (setting [3]) is greater than 100 nM; in the assay with RSV-A2-GFP virus (setting [4]), less than 10 nM.
Regarding `Cn1nc(-c2ncco2)c(F)c1C(=O)N1C[C@@H]2[C@H](C1)[C@H]2Oc1cc(C(C)(C)N)cc(-c2ccc(F)cc2)n1` [Example 26, ((1R,5S,6s)-6-((4-(2-aminopropan-2-yl)-6-(4-fluorophenyl)pyridin-2-yl)oxy)-3-azabicyclo[3.1.0]hexan-3-yl)(4-fluoro-1-methyl-3-(oxazol-2-yl)-1H-pyrazol-5-yl)methanone], the EC50 in the assay with hMPV-GFP virus (setting [3]) was greater than 100 nM; in the assay on RSV-A2-GFP virus (setting [4]) it was less than 10 nM.
For `Cn1nc(-c2cscn2)cc1C(=O)N1C[C@@H]2[C@H](C1)[C@H]2Oc1cc(C2(C)CNC2=O)cc(-c2ccc(F)cc2)n1` (single isomer, unassigned; ent-3) [Example 50B], the figures for the EC50 in the assay with hMPV-GFP virus (setting [5]) and with RSV-A2-GFP virus (setting [6]) were greater than 100 nM and less than 10 nM, respectively.
Turning to `Cn1nc(-c2cscn2)cc1C(=O)N1C[C@@H]2[C@H](C1)[C@H]2Oc1cc(C(C)(C)N)cc(OCC23CC(C2)C3)n1` [Example 42, ((1R,5S,6s)-6-((4-(2-aminopropan-2-yl)-6-(bicyclo[1.1.1]pentan-1-ylmethoxy)pyridin-2-yl)oxy)-3-azabicyclo[3.1.0]hexan-3-yl)(1-methyl-3-(thiazol-4-yl)-1H-pyrazol-5-yl)methanone], the EC50 with hMPV-GFP virus (setting [3]) is greater than 100 nM; in the assay on RSV-A2-GFP virus (setting [4]), less than 10 nM.
On the same counts, the results for `Cn1nc(-c2cscn2)nc1C(=O)N1C[C@@H]2[C@H](C1)[C@H]2Oc1cc(C(C)(C)N)cc(-c2ccc(F)cc2)n1` [Example 30, ((1R,5S,6s)-6-((4-(2-aminopropan-2-yl)-6-(4-fluorophenyl)pyridin-2-yl)oxy)-3-azabicyclo[3.1.0]hexan-3-yl)(1-methyl-3-(thiazol-4-yl)-1H-1,2,4-triazol-5-yl)methanone] are greater than 100 nM and less than 10 nM.
For `Cn1nc(-c2cscn2)cc1C(=O)N1C[C@@H]2[C@H](C1)[C@H]2Oc1cc(C(C)(C)N)cc(C2CCC(C)(C)CC2O)n1` (single isomer, unassigned; enantiomer 2) [Example 66B], the EC50 in the assay with hMPV-GFP virus (setting [5]) is greater than 100 nM; in the assay with RSV-A2-GFP virus (setting [6]), 10 to 100 nM.
For `Cn1nc(-c2cscn2)cc1C(=O)N1C[C@@H]2[C@H](C1)[C@H]2Oc1cc(C2(N)CCC2)cc(-c2ccc(F)cc2)n1` [Example 52, ((1R,5S,6s)-6-((4-(1-aminocyclobutyl)-6-(4-fluorophenyl)pyridin-2-yl)oxy)-3-azabicyclo[3.1.0]hexan-3-yl)(1-methyl-3-(thiazol-4-yl)-1H-pyrazol-5-yl)methanone], the EC50 in the assay on hMPV-GFP virus (setting [3]) is greater than 100 nM; in the assay on RSV-A2-GFP virus (setting [4]) it was less than 10 nM.
